In ChEMBL document CHEMBL1137190, “Synthesis and KCNQ2 opener activity of N-(1-benzo[1,3]dioxol-5-yl-ethyl, N-[1-(2,3-dihydro-benzofuran-5-yl)-ethyl, and N-[1-(2,3-dihydro-1H-indol-5-yl)-ethyl acrylamides” (Bioorg Med Chem Lett, 2004):

System: HEK293
Experiment: Effective concentration against whole-cell patch clamp from […] HEK293 cells
Assay type: functional, cell-based, Homo sapiens
Settings: Homo sapiens, HEK293

Question: With C[C@H](NC(=O)/C=C/c1ccccc1F)c1ccc2c(c1)N(CC1CC1)CCO2 as the compound, how does the EC50 read?
Answer: 60 nM

Question: C[C@H](NC(=O)/C=C/c1c(F)cccc1F)c1ccc2c(c1)CCO2 was tested. Which EC50 did it give?
Answer: 330 nM

Question: How did the EC50 turn out when C[C@H](NC(=O)/C=C/c1ccccc1)c1cccc(N2CCOCC2)c1 was run?
Answer: 3200 nM

Question: C[C@H](NC(=O)/C=C/c1ccccc1F)c1ccc2c(c1)CCN2 was tested. Which EC50 did it give?
Answer: 430 nM

Question: How did the EC50 turn out when CCOC(=O)Nc1ccc(NCc2ccc(F)cc2)cc1N [EZOGABINE] was run?
Answer: 1300 nM

Same assay, conditions: hek293

Question: Which EC50 does the source give for C[C@H](NC(=O)/C=C/c1ccccc1Cl)c1ccc2c(c1)OCO2 here?
Answer: 20 nM

Question: C[C@H](NC(=O)/C=C/c1ccccc1Cl)c1ccc2c(c1)OCO2 (racemic) was tested. Which EC50 did it give?
Answer: 70 nM
